Experiments:
[1] = system: PARP cleavage and caspase-3 processing in MDA-MB-231 cells; experiment: Western blot analysis of PARP cleavage and caspase-3 processing; type: cell-based, human; conditions: 24 h; for concentration causing PARP cleavage / concentration causing caspase-3 processing: MDA-MB-231, Western blot; for caspase-3 processing and PARP cleavage: 30 nM, MDA-MB-231
[2] = target: XIAP L-BIR2-BIR3 (residues 120–356) (Homo sapiens, UniProt P98170); conditions: relative to 15; cited from earlier work
[3] = target: cIAP-1 BIR3 (residues 253–363) (Homo sapiens, UniProt Q13490); conditions: relative to 15; cited from earlier work
[4] = system: MDA-MB-231 xenograft; conditions: 5 mg/kg, mice; cited from earlier work
[5] = target: cIAP1 in MDA-MB-231 cells (Homo sapiens, UniProt Q13490); conditions: 24 h, MDA-MB-231, Western blot
[6] = target: cIAP-2 BIR3 (residues 238–349) (Homo sapiens, UniProt Q13489); conditions: relative to 15; cited from earlier work
[7] = system: subset of human cancer cell lines; conditions: cited from earlier work
[8] = target: T1, XIAP linker-BIR2-BIR3 (Homo sapiens, UniProt P98170); experiment: Cell-free caspase-3/7 functional assay; conditions: compound 60 μM; XIAP linker-BIR2-BIR3 20 nM
[9] = Solubility; type: physicochemical
[10] = system: MDA-MB-231 xenograft; conditions: SCID mice; 27 at 1 or 5 mg/kg i.v.; Taxotere […] i.v. days 2 and 9
[11] = target: T1, XIAP linker-BIR2-BIR3; experiment: Cell-free caspase-9 functional assay; type: biochemical; conditions: compound as high as 100 μM; XIAP 500 nM

With `CN[C@@H](C)C(=O)N[C@H]1CCCC[C@H]2CC[C@@H](C(=O)N[C@@H](c3ccccc3)c3cn(CCCCCCc4ccc(CCCCCCn5cc([C@@H](NC(=O)[C@@H]6CC[C@@H]7CCCC[C@H](NC(=O)[C@H](C)NC)C(=O)N76)c6ccccc6)nn5)cc4)nn3)N2C1=O` [Compound 21, (S,3S,3′S,6S,6′S,10aS,10a′S)-N,N′-((1S,1′S)-(1,1′-(1,4-phenylenebis(hexane-6,1-diyl))bis(1H-1,2,3-triazole-4,1-diyl))bis(phenylmethylene))bis(6-((S)-2-(methylamino)propanamido)-5-oxodecahydropyrrolo[1,2-a]azocine-3-carboxamide)] the “concentration causing PARP cleavage” value [1] was 3 nM and the “concentration causing caspase-3 processing” value [1] was 3 nM.
In the case of `CN[C@@H](C)C(=O)N[C@H]1CCCC[C@H]2CC[C@@H](C(=O)N[C@@H](c3ccccc3)c3cn(CCCCc4ccc(CCCCn5cc([C@@H](NC(=O)[C@@H]6CC[C@@H]7CCCC[C@H](NC(=O)[C@H](C)NC)C(=O)N76)c6ccccc6)nn5)cc4)nn3)N2C1=O` [Compound 16], the “times more potent than 15 in binding to XIAP containing both BIR2 and BIR3 domains” value [2] is listed as > 100 times, the “concentration causing PARP cleavage” value [1] is listed as 3 nM and the “concentration causing caspase-3 processing” value [1] is listed as 3 nM. For the same compound, the “times more potent than 15 in binding to cIAP1 BIR3 protein” value [3] was 10 times, the “antitumor effect in MDA-MB-231 xenograft model” value [4] was “tumor regression” and the “concentration inducing clear/robust cIAP1 degradation” value [5] was 1 nM. For the same compound, the “times more potent than 15 in binding to cIAP2 BIR3 protein” value [6] was 10 times, the “concentrations effectively inducing apoptosis and inhibiting cell growth (as low as)” value [7] was 1 to 10 nM and the “times more potent than 15 in inducing apoptosis and inhibiting cell growth” value [7] was 100 times.
With `CN[C@@H](C)C(=O)N[C@H]1CCCC[C@H]2CC[C@@H](C(=O)NC(c3ccccc3)c3ccccc3)N2C1=O` [Compound 15] the caspase-3/7 activity restored [8] was 40%.
In the case of `CN[C@@H](C)C(=O)N[C@H]1CCCC[C@H]2CC[C@@H](C(=O)N[C@@H](c3ccccc3)c3cn(CCCCCOCCCCCn4cc([C@@H](NC(=O)[C@@H]5CC[C@@H]6CCCC[C@H](NC(=O)[C@H](C)NC)C(=O)N65)c5ccccc5)nn4)nn3)N2C1=O` [Compound 27, (S,3S,3′S,6S,6′S,10aS,10a′S)-N,N′-((1S,1′S)-(1,1′-(oxybis(pentane-5,1-diyl))bis(1H-1,2,3-triazole-4,1-diyl))bis(phenylmethylene))bis(6-((S)-2-(methylamino)propanamido)-5-oxodecahydropyrrolo[1,2-a]azocine-3-carboxamide)], the solubility [9] is reported as “excellent solubility” and the “weight loss / signs of toxicity” value [10] is reported as “no signs of toxicity”.
In the case of `CN[C@@H](C)C(=O)N[C@H]1CCCC[C@H]2CC[C@@H](C(=O)N[C@@H](c3ccccc3)c3cn(CCCc4ccc(CCCn5cc([C@@H](NC(=O)[C@@H]6CC[C@@H]7CCCC[C@H](NC(=O)[C@H](C)NC)C(=O)N76)c6ccccc6)nn5)cc4)nn3)N2C1=O` [Compound 20, (S,3S,3′S,6S,6′S,10aS,10a′S)-N,N′-((1S,1′S)-(1,1′-(1,4-phenylenebis(propane-3,1-diyl))bis(1H-1,2,3-triazole-4,1-diyl))bis(phenylmethylene))bis(6-((S)-2-(methylamino)propanamido)-5-oxodecahydropyrrolo[1,2-a]azocine-3-carboxamide)], the “concentration causing PARP cleavage” value [1] is reported as 3 nM and the “concentration causing caspase-3 processing” value [1] is reported as 10 nM.
In the case of `CC(=O)N[C@@H](Cc1c[nH]c2ccccc12)C(=O)N[C@H]1CCCC[C@H]2CC[C@@H](C(=O)N[C@@H](c3ccccc3)c3cn(CCCCc4ccc(CCCCn5cc([C@@H](NC(=O)[C@@H]6CC[C@@H]7CCCC[C@H](NC(=O)[C@H](Cc8c[nH]c9ccccc89)NC(C)=O)C(=O)N76)c6ccccc6)nn5)cc4)nn3)N2C1=O` [Compound 17], the “restoration of caspase-9 activity” value [11] is reported as “fails to restore any caspase-9 activity”.
With `CN[C@@H](C)C(=O)N[C@H]1CCCC[C@H]2CC[C@@H](C(=O)N[C@@H](c3ccccc3)c3cn(Cc4ccc(Cn5cc([C@@H](NC(=O)[C@@H]6CC[C@@H]7CCCC[C@H](NC(=O)[C@H](C)NC)C(=O)N76)c6ccccc6)nn5)cc4)nn3)N2C1=O` [Compound 18, (S,3S,3′S,6S,6′S,10aS,10a′S)-N,N′-((1S,1′S)-(1,1′-(1,4-phenylenebis(methylene))bis(1H-1,2,3-triazole-4,1-diyl))bis(phenylmethylene))bis(6-((S)-2-(methylamino)propanamido)-5-oxodecahydropyrrolo[1,2-a]azocine-3-carboxamide)] the “caspase-3 processing and PARP cleavage” value [1] was “fail to induce caspase-3 processing and PARP cleavage”.
For `CN[C@@H](C)C(=O)N[C@H]1CCCC[C@H]2CC[C@@H](C(=O)N[C@@H](c3ccccc3)c3cn(CCc4ccc(CCn5cc([C@@H](NC(=O)[C@@H]6CC[C@@H]7CCCC[C@H](NC(=O)[C@H](C)NC)C(=O)N76)c6ccccc6)nn5)cc4)nn3)N2C1=O` [Compound 19, (S,3S,3′S,6S,6′S,10aS,10a′S)-N,N′-((1S,1′S)-(1,1′-(1,4-phenylenebis(ethane-2,1-diyl))bis(1H-1,2,3-triazole-4,1-diyl))bis(phenylmethylene))bis(6-((S)-2-(methylamino)propanamido)-5-oxodecahydropyrrolo[1,2-a]azocine-3-carboxamide)], the “caspase-3 processing and PARP cleavage” value [1] was “fail to induce caspase-3 processing and PARP cleavage”.

Source: paper PMC3108148 (Journal of medicinal chemistry, 2011)
